Data: ChEMBL document CHEMBL1201862, “PubChem BioAssay data set” (2004)
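Following 48 hours of exposure in 96-well plates, responses at five concentrations were used to interpolate endpoints linearly. GI50 marks 50% less growth.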 Active and inactive are the calls of the source. Rule as the data show it: active = GI50 up to about 1.1 µM and inactive = higher.

How the values were obtained:
Assay in all cases: growth of human tumour cells (NCI), 48 h
SK-OV-3 = system: SK-OV-3
HL-60 = system: HL-60
MOLT-4 = system: MOLT-4
A498 = system: A498
BT-549 = system: BT-549
OVCAR-8 = system: OVCAR-8
OVCAR-5 = system: OVCAR-5
SK-MEL-5 = system: SK-MEL-5
SK-MEL-2 = system: SK-MEL-2
NCI-H460 = system: NCI-H460
SW-620 = system: SW-620
MDA-MB-231 = system: MDA-MB-231
UO-31 = system: UO-31
HCT-116 = system: HCT-116
MDA-MB-435 = system: MDA-MB-435
MCF7 = system: MCF7
SF-539 = system: SF-539
COLO 205 = system: COLO 205
SK-MEL-28 = system: SK-MEL-28
HT-29 = system: HT-29

Measured: GI50

O=C1Nc2ccc(Br)cc2/C1=N/c1ccc2c(c1)OCO2
inactive: SK-OV-3 31.8 µM | HL-60 13.2 µM | MOLT-4 16.6 µM | A498 30.6 µM | BT-549 19.8 µM | OVCAR-8 32.5 µM | OVCAR-5 22.8 µM | SK-MEL-5 16 µM | SK-MEL-2 17.7 µM | NCI-H460 22.5 µM | SW-620 22.4 µM | MDA-MB-231 19 µM | UO-31 19.1 µM | HCT-116 17.4 µM | MDA-MB-435 9.35 µM | MCF7 16.7 µM | SF-539 18.5 µM | COLO 205 16.9 µM | SK-MEL-28 39 µM | HT-29 17.4 µM

O=C(NC1=NC2C=CC([N+](=O)[O-])=CC2S1)C(=O)Nn1c(S)nc2ccccc2c1=O (configuration not stated)
inactive: SK-OV-3 63 µM | HL-60 56.4 µM | MOLT-4 63 µM | A498 30.4 µM | BT-549 65.8 µM | OVCAR-8 87.1 µM | OVCAR-5 > 100 µM | SK-MEL-5 88.1 µM | SK-MEL-2 > 100 µM | NCI-H460 80.5 µM | SW-620 > 100 µM | MDA-MB-231 63.8 µM | UO-31 27.7 µM | HCT-116 79.3 µM | MDA-MB-435 > 100 µM | MCF7 97.7 µM | SF-539 > 100 µM | SK-MEL-28 > 100 µM | HT-29 > 100 µM

Cc1nnc([C@@]2(C)CC[C@H]3[C@@H](CC=C4C[C@@H](O)CC[C@@]43C)[C@@H]2CC#N)o1
inactive: SK-OV-3 > 100 µM | HL-60 > 100 µM | MOLT-4 > 100 µM | A498 > 100 µM | BT-549 > 100 µM | OVCAR-8 > 100 µM | OVCAR-5 > 100 µM | SK-MEL-5 > 100 µM | SK-MEL-2 > 100 µM | SW-620 > 100 µM | MDA-MB-231 > 100 µM | UO-31 > 100 µM | HCT-116 > 100 µM | MDA-MB-435 > 100 µM | MCF7 > 100 µM | SF-539 > 100 µM | COLO 205 > 100 µM | HT-29 > 100 µM

O/N=C\c1c2c(cc3c1CCC3)CCC2
inactive: SK-OV-3 > 100 µM | HL-60 > 100 µM | MOLT-4 25 µM | A498 34.1 µM | BT-549 > 100 µM | OVCAR-8 > 100 µM | OVCAR-5 > 100 µM | SK-MEL-5 > 100 µM | SK-MEL-2 > 100 µM | NCI-H460 > 100 µM | SW-620 > 100 µM | MDA-MB-231 > 100 µM | UO-31 > 100 µM | HCT-116 > 100 µM | MDA-MB-435 > 100 µM | MCF7 > 100 µM | SF-539 > 100 µM | COLO 205 > 100 µM | SK-MEL-28 > 100 µM | HT-29 > 100 µM

OCCSCc1cc2c(O)c(c1)Cc1cc(CSCCO)cc(c1O)Cc1cc(CSCCO)cc(c1O)Cc1cc(CSCCO)cc(c1O)C2
inactive: SK-OV-3 8.47 µM | HL-60 4.04 µM | MOLT-4 3.35 µM | A498 6.15 µM | BT-549 3.3 µM | OVCAR-8 5.09 µM | OVCAR-5 5.6 µM | SK-MEL-5 2.69 µM | SK-MEL-2 2.32 µM | NCI-H460 2.89 µM | SW-620 3.92 µM | MDA-MB-231 2.54 µM | UO-31 13.8 µM | HCT-116 4.02 µM | MDA-MB-435 2.83 µM | MCF7 3.91 µM | SF-539 4.02 µM | COLO 205 2.68 µM | SK-MEL-28 3.56 µM | HT-29 2.88 µM

N#C[BH2-][n+]1ccc(C(=O)NNCC(F)(F)F)cc1
inactive: SK-OV-3 > 100 µM | HL-60 > 100 µM | MOLT-4 > 100 µM | A498 > 100 µM | BT-549 > 100 µM | OVCAR-8 > 100 µM | OVCAR-5 > 100 µM | SK-MEL-5 > 100 µM | SK-MEL-2 > 100 µM | NCI-H460 > 100 µM | SW-620 > 100 µM | MDA-MB-231 > 100 µM | UO-31 > 100 µM | HCT-116 > 100 µM | MDA-MB-435 > 100 µM | MCF7 > 100 µM | SF-539 > 100 µM | COLO 205 > 100 µM | SK-MEL-28 > 100 µM | HT-29 > 100 µM

OC1(c2ccc(Cl)cc2)c2ccccc2C2=NCc3ccccc3CN21 (configuration not stated)
inactive: SK-OV-3 1.22 µM | HL-60 4.94 µM | MOLT-4 3.37 µM | A498 13.6 µM | BT-549 18.6 µM | OVCAR-8 9.55 µM | OVCAR-5 13.1 µM | SK-MEL-5 13.2 µM | SK-MEL-2 1.2 µM | NCI-H460 11.2 µM | SW-620 2.69 µM | MDA-MB-231 16.6 µM | UO-31 7.98 µM | HCT-116 6.62 µM | MDA-MB-435 7.45 µM | MCF7 4.8 µM | SF-539 7.13 µM | COLO 205 4.9 µM | SK-MEL-28 2.75 µM | HT-29 14.7 µM
